Experiments:
male Swiss mice = experiment: Maximum electrical seizure; format: in vivo; details: Mus musculus, po, 0.25 h, read-out: Maximum electrical seizure, ED50
Source text: Maximum electrical seizure
The technique used is that recommended by GOODMAN (L. S.), SING-GREWALD (M.), BROWN (V. C.) and […] (E. A.), Am.
The animals tested are male Swiss mice grouped into batches of 10. The normal threshold of the electric shock which is capable of causing tonic extension of the front paws is first determined for each animal.

male OFl mice = experiment: Pentetrazole seizure (mortality after i.p. pentetrazole 125 mg/kg); format: in vivo; details: Mus musculus, po, 0.25 h, read-out: Pentetrazole seizure, ED50
Experimental: This test was carried out on batches of 10 male OFl mice which had fasted since the day before and were placed in individual cages, in accordance with the method of Cheymol (J.) Acta. Pharmacol., (1950), 2, 1-55.
The treatments were carried out perorally 15 minutes before intraperitoneal (i.p.) injection of a solution of pentetrazole (125 mg/kg).
The mortality is recorded 3 hours after this injection.
It is to be noted that the 50% effective doses (ED50), where these have been determined, were calculated by the method of MOOD (J. Am. Statist. Assoc., (1965), 60, 967-78).

Acute toxicity, peroral = details: mouse, in vivo, po; at 950 mg/kg, peroral, mice
Experimental: In order to locate the boundary separating the pharmacological effects from the toxicity of the products, a very approximate assessment of the toxicity was carried out on mice (batches of 10 animals) after peroral treatment.

mice [1] = experiment: Anoxia as a result of confinement; format: in vivo; details: Mus musculus, ip, read-out: Anoxia as a result of confinement, % increase in the survival time
Experimental: Anoxia as a result of confinement
Mice (in batches of 20) are placed in a 200 cm^3 hermetically sealed chamber (a wide-mouthed glass vessel) which is under normal pressure and has a normal content of atmospheric oxygen. All of the treatments are administered intraperitoneally immediately before introduction into the chamber. The animal is considered to be dead at the moment when breathing stops.
Since the wide-mouthed vessels chosen are very small, the motor activity of the animals is extremely low and this eliminates, in principle, the possibility of a positive result due to a sedative effect.
Therefore, the percentage increase in the survival time of the treated animals is noted, relative to the batch.

male mice = experiment: Sedative activity: Rotarod test; format: in vivo; details: at 550 mg/kg, peroral, mice
Experimental: This test is used for the purpose of assessing the ability of the animals to coordinate their movements. It uses a wooden cylinder which has a diameter of 4.8 cm and revolves at a speed of 4 revolutions/minute. The test is carried out on male mice weighing about 22 g. The products are administered perorally (p.o.) to batches of 10 animals per dose. The animals are placed on the apparatus 15 minutes after administration of the product. The percentage of mice which lose their equilibrium reflex, that is to say which become incapable of retaining their balance on the cylinder for a period of 2 minutes, is noted.
Using the regression straight line method, a 50% neurotoxic dose (NTD 50) is calculated, which thus expresses the average level of the first neuromuscular effects under the influence of the studied product.

mice [2] = experiment: β-Mercaptopropionic acid seizure; format: in vivo; details: Mus musculus, po, 0.25 h, read-out: β-Mercaptopropionic acid seizure, ED50
Experimental: β-Mercaptopropionic acid seizure
β-Mercaptopropionic acid is an inhibitor of glutamatedecarboxylase (GAD), which is an enzyme which catalyses the conversion of glutamate to γ-aminobutyric acid (GABA). Its action thus manifests itself in a lowering of the GABA level and the occurrence of general tonico-clonic seizures 3 to 4 minutes after it has been administered. β-Mercaptopropionic acid was administered to mice intraperitoneally at a dose of 40 mg/kg.

mouse = experiment: Ouabain seizure; format: in vivo; details: Mus musculus, po, 0.25 h, read-out: Ouabain seizure, ED50
Experimental: Ouabain was administered intra-ventricularly at a dose of 5 γ/mouse in a volume of 0.02 ml.

C#CCC1(C(=O)[O-])CCCCC1.[Na+]
ED50 (male Swiss mice): 478 mg/kg
ED50 (male OFl mice): 120 mg/kg
mortality (Acute toxicity, peroral): 10%
ILS at 280 mg/kg (mice [1]): 48%
Rotarod test, % of failures (male mice): 40%
ED50 (mice [2]): 245 mg/kg
ED50 (mouse): 507 mg/kg

Source: patent publication US4283420A, “Pharmaceutically active cyclohexyl compounds and their preparation” (Labaz, priority 1978, dated 1981)
